The numbers were not newly measured in patent publication US5462964A, “Dipeptide boronic acid inhibitors of trypsin-like enzymes” (The Du Pont Merck Pharmaceutical Company, priority 1993, dated 1995), which cites them from elsewhere.

The target of data set [1] is T1, thrombin (Homo sapiens, UniProt P00734). The note with it: reversible inhibitor of thrombin; literature / EP 293 881.
For data set [2], the target named is T1, thrombin. The note with it: Kettner and Shaw Thromb. Res. 14, 969 (1979).
A further data set concerns the target chymotrypsin (Bos taurus, UniProt P00766). Particulars: Matteson et al. J. Am. Chem. Soc. 103, 5241 (1981).
A further data set relates to blood coagulation. Particulars: both in vitro and in vivo; EP 293 881.

One may read the Ki as a dissociation constant, usually derived from enzyme kinetics or from competition with a known ligand. As to `CC(=O)N[C@H](Cc1ccccc1)C(=O)N1CCC[C@H]1C(=O)N[C@H](C=O)CCCNC(=N)N` [Ac-D-Phe-Pro-Arg-H], the Ki at thrombin [1] is 75 nM.

Consider `CC(=O)NC(Cc1ccccc1)C(=O)N1CCCC1C(=O)NC(CCCNC(=N)N)C(=O)CCl` [Ac-D-Phe-Pro-ArgCH2 Cl], for which, at thrombin [2], the “inhibitor of human thrombin” value was “potent and selective irreversible inhibitor”. For the compound `CC(=O)N[C@@H](Cc1ccccc1)B(O)O` [Ac-boroPhe-OH, (R)-1-acetamido-2-phenylethane boronic acid], the Ki on chymotrypsin was 4000 nM. Turning to `CC(=O)N[C@H](Cc1ccccc1)C(=O)N1CCC[C@H]1C(=O)N[C@@H](CCCN=C(N)N)B(O)O` [Ac-D-Phe-Pro-boroArgOH], in the data set with blood coagulation, the “inhibition of blood coagulation” value is “highly effective”.
